Results taken from patent US20230257393A1, “MACROMOLECULE-SUPPORTED THIENOAZEPINE COMPOUNDS, AND USES THEREOF” (BOLT BIOTHERAPEUTICS, INC., priority 2020, published 2023).

biological target: T1, human TLR7 (Homo sapiens, UniProt Q9NYK1); test: HEK Reporter Assay, HEK293 NFKB reporter cells expressing human TLR7; assay type: cell-based; conditions: Table 1a, read-out: HEK293 hTLR7 EC50
T1 construct: host or cells: HEK293 reporter cells
T1 sequence (Q9NYK1 27-1049): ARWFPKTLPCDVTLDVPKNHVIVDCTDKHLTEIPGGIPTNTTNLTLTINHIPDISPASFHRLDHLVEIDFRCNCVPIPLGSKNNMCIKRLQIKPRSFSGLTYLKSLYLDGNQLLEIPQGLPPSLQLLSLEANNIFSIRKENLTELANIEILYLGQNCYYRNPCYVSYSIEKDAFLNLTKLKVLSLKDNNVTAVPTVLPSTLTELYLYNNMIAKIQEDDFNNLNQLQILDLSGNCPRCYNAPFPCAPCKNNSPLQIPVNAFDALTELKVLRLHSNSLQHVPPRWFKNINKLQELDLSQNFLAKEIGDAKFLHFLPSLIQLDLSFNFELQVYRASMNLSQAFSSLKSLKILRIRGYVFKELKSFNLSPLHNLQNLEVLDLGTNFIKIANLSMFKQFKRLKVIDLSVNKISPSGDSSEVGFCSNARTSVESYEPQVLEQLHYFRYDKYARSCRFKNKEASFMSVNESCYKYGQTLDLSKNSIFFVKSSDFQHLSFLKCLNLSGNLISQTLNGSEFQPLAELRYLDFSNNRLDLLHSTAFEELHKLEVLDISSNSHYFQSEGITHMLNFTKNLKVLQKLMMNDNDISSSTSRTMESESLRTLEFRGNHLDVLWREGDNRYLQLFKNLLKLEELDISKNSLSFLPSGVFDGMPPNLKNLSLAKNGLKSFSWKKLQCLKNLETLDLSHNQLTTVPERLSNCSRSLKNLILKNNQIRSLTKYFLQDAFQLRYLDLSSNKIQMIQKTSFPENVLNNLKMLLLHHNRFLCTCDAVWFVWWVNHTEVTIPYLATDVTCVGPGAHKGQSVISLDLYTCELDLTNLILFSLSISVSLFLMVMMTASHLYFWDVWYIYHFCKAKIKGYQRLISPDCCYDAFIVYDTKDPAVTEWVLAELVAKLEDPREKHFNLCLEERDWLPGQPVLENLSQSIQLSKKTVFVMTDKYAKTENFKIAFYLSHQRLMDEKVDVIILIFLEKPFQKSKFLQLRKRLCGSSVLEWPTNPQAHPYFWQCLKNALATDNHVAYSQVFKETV
Experimental: Each compound was synthesized, purified, and characterized by mass spectrometry and shown to have the mass indicated. Additional experimental procedures are found in the Examples. Activity against HEK293 NFKB reporter cells expressing human TLR7 or human TLR8 was measured according to Example 202.
HEK293 reporter cells expressing human TLR7 or human TLR8 were purchased from Invivogen and vendor protocols were followed for cellular propagation and experimentation. Briefly, cells were grown to 80-85% confluence at 5% CO2 in DMEM supplemented with 10% FBS, Zeocin, and Blasticidin. Cells were then seeded in 96-well flat plates at 4×10^4 cells/well with substrate containing HEK detection medium and immunostimulatory molecules. Activity was measured using a plate reader at 620-655 nm wavelength.

Compound	EC50
CCCN(CCC)C(=O)C1=Cc2sccc2N=C(N)C1 [TAZ-2, 5-amino-N,N-dipropyl-6H-thieno[3,2-b]azepine-7-carboxamide]	> 9 µM
CCCN(CCC)C(=O)C1=Cc2sc(CCCCCN)cc2N=C(N)C1 [TAZ-14, 5-amino-2-(5-aminopentyl)-N,N-dipropyl-6H-thieno [3,2-b]azepine-7-carboxamide]	> 9 µM
CCCN(CC#CCNC(=O)OC(C)(C)C)C(=O)C1=Cc2sccc2N=C(N)C1 [TAZ-16, tert-butyl N-[4-[(5-amino-6H-thieno[3,2-b]azepine-7-carbonyl)-propyl-amino]but-2-ynyl]carbamate]	> 9 µM
CCCN(CC#CCN)C(=O)C1=Cc2sccc2N=C(N)C1 [TAZ-17, 5-amino-N-(4-aminobut-2-ynyl)-N-propyl-6H-thieno[3,2-b]azepine-7-carboxamide]	> 9 µM
CCCN(Cc1ccc(CN)cc1)C(=O)C1=Cc2sccc2N=C(N)C1 [TAZ-30, 5-amino-N-(4-(aminomethyl)benzyl)-N-propyl-6H-thieno[3,2-b]azepine-7-carboxamide]	> 9 µM

same assay, conditions: Table 1b, read-out: HEK293 hTLR7 EC50

Compound	EC50
CCCN(Cc1ccc(CNC)cc1)C(=O)C1=Cc2sc(CCCCCN(C)C)cc2N=C(N)C1 [TAZ-65, 5-amino-2-[5-(dimethylamino)pentyl]-N-[[4-(methylaminomethyl)phenyl]methyl]-N-propyl-6H-thieno[3,2-b]azepine-7-carboxamide]	> 9 µM
CCCN(C[C@H]1C[C@H](CN)C1)C(=O)C1=Cc2sccc2N=C(N)C1 [TAZ-69]	> 9 µM
CCCN(CCC)C(=O)C1=Cc2sc(COCCN)cc2N=C(N)C1 [TAZ-81]	> 9 µM
CCCN(CCC)C(=O)C1=Cc2sc(CNC(=O)CN)cc2N=C(N)C1 [TAZ-92]	> 9 µM

same assay, conditions: Table 1c, read-out: HEK293 hTLR7 EC50

Compound	EC50
CCCN(C[C@H]1CC[C@@H](CN)CC1)C(=O)C1=Cc2sccc2N=C(N)C1 [TAZ-118]	≥ 9 µM
CCCN(Cc1cnc(CN(C)C)c(C(F)(F)F)c1)C(=O)C1=Cc2sc(CCCCCN)cc2N=C(N)C1 [TAZ-127]	≥ 9 µM
CCCN(CCCNC(=O)OC1CCC1)C(=O)C1=Cc2sc(C#CC3CCN(C(=O)OC(C)(C)C)CC3)cc2N=C(N)C1 [TAZ-165]	≥ 9 µM
CCCN(CCC)C(=O)C1=Cc2scc(C)c2N=C(N)C1 [TAZ-168]	≥ 9 µM
CCCN(OCC)C(=O)C1=Cc2sc(CC3CCN(C(=O)OC(C)(C)C)CC3)cc2N=C(N)C1 [TAZ-179]	≥ 9 µM
CCCN(OCC)C(=O)C1=Cc2sc(C#CC3CN(C(=O)OC(C)(C)C)C3)cc2N=C(N)C1 [TAZ-187]	≥ 9 µM
CCCN(OCC)C(=O)C1=Cc2sc(C#CC3(O)CN(C(=O)OC(C)(C)C)C3)cc2N=C(N)C1 [TAZ-188]	≥ 9 µM
CCCN(OCC)C(=O)C1=Cc2sc(CN3Cc4ccc(NC(=O)CCN)cc4C3)cc2N=C(N)C1 [TAZ-201]	≥ 9 µM
CCCN(OCC)C(=O)C1=Cc2sc(CN3CC(CN)C3)cc2N=C(N)C1 [TAZ-211]	≥ 9 µM
CCCN(OCC)C(=O)C1=Cc2sc(CN3CCN(c4cccc(C(=O)OC(C)(C)C)c4)CC3)cc2N=C(N)C1 [TAZ-216]	≥ 9 µM
CCCN(OCC)C(=O)C1=Cc2sc(CN3C[C@@H]4CN(C(=O)OC(C)(C)C)C[C@@H]4C3)cc2N=C(N)C1 [TAZ-242]	≥ 9 µM
CCCN(OCC)C(=O)C1=Cc2sc(CN3CCC(N)CC3)cc2N=C(N)C1 [TAZ-243]	≥ 9 µM
CCCN(OCC)C(=O)C1=Cc2sc(CN3CC4(CCN4Cc4ccccc4)C3)cc2N=C(N)C1 [TAZ-246]	≥ 9 µM
CCCN(OCC)C(=O)C1=Cc2sc(CN3C[C@H]4CNC[C@H]4C3)cc2N=C(N)C1 [TAZ-247]	≥ 9 µM
CCCN(OCC)C(=O)C1=Cc2sc(CN3C[C@H]4CN(C(=O)OC(C)(C)C)C[C@@H]4C3)cc2N=C(N)C1 [TAZ-248]	≥ 9 µM
CCCN(Cc1ncco1)C(=O)C1=Cc2sc(CC3CNC3)cc2N=C(N)C1 [TAZ-256]	≥ 9 µM
